Active and inactive are the calls of the source. No cut-off for these calls is given here.
Assays:
[1] = target: T1, Amine oxidase [flavin-containing] B (Homo sapiens, UniProt P27338); assay: Inhibition of human MAO-B at 10 uM using p-tyramine as substrate incubated for 30 mins by Amplex Red reagent based fluorescence analysis relative to control; details: 0.5 h
T1 sequence (P27338 whole entry): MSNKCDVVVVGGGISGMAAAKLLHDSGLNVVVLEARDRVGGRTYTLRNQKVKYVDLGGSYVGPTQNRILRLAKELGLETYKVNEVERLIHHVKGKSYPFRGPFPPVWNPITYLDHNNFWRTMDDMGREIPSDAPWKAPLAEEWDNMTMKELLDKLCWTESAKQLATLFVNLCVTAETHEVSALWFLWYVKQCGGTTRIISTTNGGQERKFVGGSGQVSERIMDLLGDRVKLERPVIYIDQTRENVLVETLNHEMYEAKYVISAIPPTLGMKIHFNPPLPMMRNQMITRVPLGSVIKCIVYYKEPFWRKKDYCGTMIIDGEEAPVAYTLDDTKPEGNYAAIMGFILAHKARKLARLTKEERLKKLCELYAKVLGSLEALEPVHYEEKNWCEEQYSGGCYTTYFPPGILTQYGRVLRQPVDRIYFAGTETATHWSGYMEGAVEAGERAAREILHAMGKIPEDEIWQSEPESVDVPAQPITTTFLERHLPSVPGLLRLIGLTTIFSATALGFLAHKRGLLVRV

[2] = target: T2, Amine oxidase [flavin-containing] A (Homo sapiens, UniProt P21397); assay: Inhibition of human MAO-A at 10 uM using p-tyramine as substrate incubated for 30 mins by Amplex Red reagent based fluorescence analysis relative to control; details: 0.5 h
T2 sequence (P21397 whole entry): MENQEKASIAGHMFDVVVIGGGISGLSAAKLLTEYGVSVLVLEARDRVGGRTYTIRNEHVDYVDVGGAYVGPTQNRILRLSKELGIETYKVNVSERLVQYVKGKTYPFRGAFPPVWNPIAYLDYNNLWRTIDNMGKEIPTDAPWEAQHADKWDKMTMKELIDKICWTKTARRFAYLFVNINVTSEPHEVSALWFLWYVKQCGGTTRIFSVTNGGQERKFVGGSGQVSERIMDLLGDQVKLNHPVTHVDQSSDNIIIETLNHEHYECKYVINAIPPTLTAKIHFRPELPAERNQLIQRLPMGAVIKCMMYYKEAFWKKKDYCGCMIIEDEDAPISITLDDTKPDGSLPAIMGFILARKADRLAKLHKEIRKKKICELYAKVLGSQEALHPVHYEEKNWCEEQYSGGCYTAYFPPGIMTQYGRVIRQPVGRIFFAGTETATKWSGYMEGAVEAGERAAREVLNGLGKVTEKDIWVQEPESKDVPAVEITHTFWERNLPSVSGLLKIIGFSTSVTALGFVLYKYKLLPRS

[3] = target: Acetylcholinesterase (Electrophorus electricus) (UniProt O42275); assay: Inhibition of electric eel AChE at 20 uM using acetylthiocholine iodide as substrate incubated for 30 min by DTNB reagent based Ellman's method relative to control
[4] = target: Cholinesterase (Equus caballus) (UniProt P81908); assay: Inhibition of equine BuChE at 25 uM using butyryl-thiocholine iodide as substrate incubated for 30 min by DTNB reagent based Ellman's method
[5] = target: Amyloid-beta precursor protein (Homo sapiens) (UniProt P05067); assay: Inhibition of amyloid beta (1 to 42) (unknown origin) aggregation at 10 uM incubated for 24 hrs by ThT assay relative to control
[6] = target: Cholinesterase (Equus caballus) (UniProt P81908); assay: Inhibition of equine BuChE at 20 uM using butyryl-thiocholine iodide as substrate incubated for 30 min by DTNB reagent based Ellman's method relative to control
[7] = target: T1, Amine oxidase [flavin-containing] B; assay: Inhibition of human MAO-B using p-tyramine as substrate preincubated for 15 mins followed by substrate addition and measured after 30 mins by Amplex Red reagent based fluorescence analysis
Acetylcholinesterase [8] = target: Acetylcholinesterase (Homo sapiens, UniProt P22303); assay: Inhibition of AChE (unknown origin)
[9] = Inhibition of MAO (unknown origin); design: species or system Homo sapiens
[10] = target: T1, Amine oxidase [flavin-containing] B; assay: Inhibition of MAO-B (unknown origin)
[11] = Cytotoxicity against human SH-SY5Y cells assessed as cell viability at 5 uM by MTT assay (reference value: 100 +/- 0.22); type: toxicity, cell-based; details: read-out: Activity
[12] = Cytotoxicity against human SH-SY5Y cells assessed as cell viability at 25 uM by MTT assay (reference value: 100 +/- 0.22); type: toxicity, cell-based; details: read-out: Activity
[13] = target: Acetylcholinesterase (Electrophorus electricus) (UniProt O42275); assay: (§1) Reversible inhibition of electric eel AChE assessed as residual activity at 10 time IC50 concentration using acetylthiocholine iodide as substrate incubated for 30 min followed by 100-fold dilution with substrate and buffer solutions by DTNB reagent based Ellman's method (reference value: 100 +/- 0.37%)
[14] = target: T1, Amine oxidase [flavin-containing] B; assay: Inhibition of human MAO-B assessed as residual activity at 10 time IC50 concentration using p-tyramine as substrate incubated for 30 mins by Amplex Red reagent based fluorescence analysis (reference value: 100 +/- 0.37%); details: 0.5 h
[15] = target: T1, Amine oxidase [flavin-containing] B; assay: Inhibition of human MAO-B using p-tyramine as substrate incubated for 30 mins by Amplex Red reagent based fluorescence analysis
[16] = Cytotoxicity against human SH-SY5Y cells assessed as cell viability at 1 uM by MTT assay (reference value: 100 +/- 0.22); type: toxicity, cell-based; details: read-out: Activity
[17] = target: Acetylcholinesterase (Electrophorus electricus) (UniProt O42275); assay: Inhibition of electric eel AChE assessed as residual activity at 10 time IC50 concentration using acetylthiocholine iodide as substrate incubated for 30 min by DTNB reagent based Ellman's method (reference value: 100 +/- 0.37%)
[18] = target: T1, Amine oxidase [flavin-containing] B; assay: Inhibition of human MAO-B assessed as residual activity at 100 time IC50 concentration using p-tyramine as substrate incubated for 30 mins by Amplex Red reagent based fluorescence analysis (reference value: 100 +/- 0.37%); details: 0.5 h
[19] = target: Acetylcholinesterase (Electrophorus electricus) (UniProt O42275); assay: as §1, with “at 100” for “at 10”
Acetylcholinesterase [20] = target: Acetylcholinesterase (Electrophorus electricus, UniProt O42275); assay: Inhibition of electric eel AChE using acetylthiocholine iodide as substrate incubated for 30 min by DTNB reagent based Ellman's method
[21] = target: Acetylcholinesterase (Electrophorus electricus) (UniProt O42275); assay: Inhibition of electric eel AChE assessed as residual activity at 100 time IC50 concentration using acetylthiocholine iodide as substrate incubated for 30 min by DTNB reagent based Ellman's method (reference value: 100 +/- 0.37%)
[22] = target: Acetylcholinesterase (Electrophorus electricus) (UniProt O42275); assay: Non-competitive inhibition of electric eel AChE assessed as decrease in Vmax using acetylthiocholine iodide as substrate incubated for 30 min by Ellman's method based Lineweaver-Burk plot analysis
[23] = target: Acetylcholinesterase (Electrophorus electricus) (UniProt O42275); assay: Non-competitive inhibition of electric eel AChE assessed as increase in Km using acetylthiocholine iodide as substrate incubated for 30 min by Ellman's method based Lineweaver-Burk plot analysis
[24] = target: Amyloid-beta precursor protein (Homo sapiens) (UniProt P05067); assay: Inhibition of amyloid beta (1 to 42) (unknown origin) aggregation at 10 uM incubated for 48 hrs by ThT assay relative to control
[25] = target: T1, Amine oxidase [flavin-containing] B; assay: Reversible inhibition of human MAO-B assessed as residual activity at 10 time IC50 concentration using p-tyramine as substrate incubated for 30 mins followed by 100-fold dilution with substrate and buffer solutions by Amplex Red reagent based fluorescence analysis (reference value: 100 +/- 0.37%); details: 0.5 h
[26] = target: T1, Amine oxidase [flavin-containing] B; assay: Reversible inhibition of human MAO-B assessed as residual activity at 100 time IC50 concentration using p-tyramine as substrate incubated for 30 mins followed by 100-fold dilution with substrate and buffer solutions by Amplex Red reagent based fluorescence analysis (reference value: 100 +/- 0.37%); details: 0.5 h
[27] = target: T2, Amine oxidase [flavin-containing] A; assay: Inhibition of human MAO-A at 25 uM using p-tyramine as substrate incubated for 30 mins by Amplex Red reagent based fluorescence analysis; details: 0.5 h

Chain of Acetylcholinesterase (Electrophorus electricus) (O42275 24-633 limits assumed): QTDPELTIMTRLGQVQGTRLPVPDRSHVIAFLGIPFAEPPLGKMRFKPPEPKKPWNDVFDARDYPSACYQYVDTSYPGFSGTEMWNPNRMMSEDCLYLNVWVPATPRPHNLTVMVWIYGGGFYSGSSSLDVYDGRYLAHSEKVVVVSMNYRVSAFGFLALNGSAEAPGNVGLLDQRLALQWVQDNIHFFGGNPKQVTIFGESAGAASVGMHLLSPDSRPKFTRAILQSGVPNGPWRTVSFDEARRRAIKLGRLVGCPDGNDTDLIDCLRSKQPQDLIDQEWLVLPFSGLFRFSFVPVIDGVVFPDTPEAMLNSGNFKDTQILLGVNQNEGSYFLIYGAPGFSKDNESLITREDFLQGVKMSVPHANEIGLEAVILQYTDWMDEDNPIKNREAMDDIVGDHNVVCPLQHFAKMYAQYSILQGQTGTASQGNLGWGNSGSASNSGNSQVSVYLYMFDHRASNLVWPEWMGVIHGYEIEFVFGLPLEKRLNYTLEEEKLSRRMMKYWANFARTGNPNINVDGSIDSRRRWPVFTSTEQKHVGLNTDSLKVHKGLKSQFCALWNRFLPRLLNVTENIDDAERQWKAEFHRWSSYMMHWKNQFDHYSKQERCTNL
Chain of Cholinesterase (Equus caballus) (P81908 whole entry): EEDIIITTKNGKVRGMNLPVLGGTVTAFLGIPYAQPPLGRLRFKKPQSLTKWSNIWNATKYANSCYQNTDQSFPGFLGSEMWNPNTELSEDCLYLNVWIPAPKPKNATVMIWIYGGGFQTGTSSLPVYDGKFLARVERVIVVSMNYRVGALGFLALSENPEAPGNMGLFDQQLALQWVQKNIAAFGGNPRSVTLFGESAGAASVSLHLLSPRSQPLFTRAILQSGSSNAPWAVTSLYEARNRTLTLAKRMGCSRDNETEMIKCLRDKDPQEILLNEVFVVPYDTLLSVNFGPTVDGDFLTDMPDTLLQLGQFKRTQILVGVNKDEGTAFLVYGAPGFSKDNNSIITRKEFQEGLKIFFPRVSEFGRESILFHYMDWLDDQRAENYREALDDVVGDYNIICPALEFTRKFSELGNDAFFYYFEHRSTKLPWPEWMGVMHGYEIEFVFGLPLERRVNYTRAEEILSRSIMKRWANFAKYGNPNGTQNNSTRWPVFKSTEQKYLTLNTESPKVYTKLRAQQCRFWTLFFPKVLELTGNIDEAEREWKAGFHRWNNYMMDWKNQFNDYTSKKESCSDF
Chain of Acetylcholinesterase (Electrophorus electricus, UniProt O42275) (O42275 whole entry): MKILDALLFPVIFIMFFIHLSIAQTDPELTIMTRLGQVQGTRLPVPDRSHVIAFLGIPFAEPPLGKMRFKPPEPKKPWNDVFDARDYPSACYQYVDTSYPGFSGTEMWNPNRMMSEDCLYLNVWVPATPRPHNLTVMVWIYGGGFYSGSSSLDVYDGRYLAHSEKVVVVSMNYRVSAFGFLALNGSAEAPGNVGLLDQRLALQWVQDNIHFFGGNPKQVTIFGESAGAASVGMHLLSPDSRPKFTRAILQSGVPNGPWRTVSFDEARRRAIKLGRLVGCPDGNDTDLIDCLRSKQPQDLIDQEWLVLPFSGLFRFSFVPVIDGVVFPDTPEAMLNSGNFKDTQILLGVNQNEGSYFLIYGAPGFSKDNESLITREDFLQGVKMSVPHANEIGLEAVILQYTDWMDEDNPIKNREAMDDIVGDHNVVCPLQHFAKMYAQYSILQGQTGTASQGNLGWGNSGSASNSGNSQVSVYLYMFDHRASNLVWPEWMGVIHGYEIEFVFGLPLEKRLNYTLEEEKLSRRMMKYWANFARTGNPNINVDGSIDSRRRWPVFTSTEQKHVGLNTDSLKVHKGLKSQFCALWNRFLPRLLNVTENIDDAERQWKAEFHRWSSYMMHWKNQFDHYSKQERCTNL
Chain of Acetylcholinesterase (Homo sapiens, UniProt P22303) (P22303 whole entry): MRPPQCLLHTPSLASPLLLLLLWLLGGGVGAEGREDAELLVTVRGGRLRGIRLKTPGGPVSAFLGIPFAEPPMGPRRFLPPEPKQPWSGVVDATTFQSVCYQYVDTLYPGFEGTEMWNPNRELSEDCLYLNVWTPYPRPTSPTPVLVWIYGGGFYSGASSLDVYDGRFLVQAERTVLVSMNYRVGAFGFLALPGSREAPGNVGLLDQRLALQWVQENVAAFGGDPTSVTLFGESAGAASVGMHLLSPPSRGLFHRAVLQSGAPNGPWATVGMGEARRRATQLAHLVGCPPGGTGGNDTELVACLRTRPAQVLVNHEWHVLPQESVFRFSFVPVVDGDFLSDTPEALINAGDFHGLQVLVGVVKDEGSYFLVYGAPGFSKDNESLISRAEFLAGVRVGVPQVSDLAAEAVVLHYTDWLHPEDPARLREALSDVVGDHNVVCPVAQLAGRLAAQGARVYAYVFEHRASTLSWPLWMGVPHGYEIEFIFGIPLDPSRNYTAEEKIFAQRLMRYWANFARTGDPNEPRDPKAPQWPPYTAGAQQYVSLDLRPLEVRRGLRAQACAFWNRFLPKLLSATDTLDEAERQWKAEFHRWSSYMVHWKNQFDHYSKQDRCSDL
Chain of Amyloid-beta precursor protein (Homo sapiens) (P05067 whole entry): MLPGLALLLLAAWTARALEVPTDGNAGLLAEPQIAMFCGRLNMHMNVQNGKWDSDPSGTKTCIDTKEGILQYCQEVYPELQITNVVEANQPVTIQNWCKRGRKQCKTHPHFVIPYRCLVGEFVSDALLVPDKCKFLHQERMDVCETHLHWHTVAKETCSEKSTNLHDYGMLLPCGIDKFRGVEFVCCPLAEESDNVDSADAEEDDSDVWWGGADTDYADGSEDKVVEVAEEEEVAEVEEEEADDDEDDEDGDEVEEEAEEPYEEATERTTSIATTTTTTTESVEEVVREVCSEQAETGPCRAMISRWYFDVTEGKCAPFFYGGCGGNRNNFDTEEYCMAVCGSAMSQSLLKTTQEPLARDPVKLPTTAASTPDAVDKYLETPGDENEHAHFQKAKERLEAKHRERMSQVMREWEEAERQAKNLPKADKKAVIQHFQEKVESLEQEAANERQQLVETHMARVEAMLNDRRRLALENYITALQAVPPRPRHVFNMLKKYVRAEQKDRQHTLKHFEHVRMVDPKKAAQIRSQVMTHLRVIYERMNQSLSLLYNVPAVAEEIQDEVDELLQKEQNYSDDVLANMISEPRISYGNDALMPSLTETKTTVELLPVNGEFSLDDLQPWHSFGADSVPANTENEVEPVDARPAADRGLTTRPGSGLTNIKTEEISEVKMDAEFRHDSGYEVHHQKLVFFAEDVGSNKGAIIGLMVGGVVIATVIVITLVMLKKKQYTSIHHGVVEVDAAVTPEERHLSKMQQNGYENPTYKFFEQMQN

| SMILES | inhibition at 10 µM [1] [%] | inhibition at 10 µM [2] [%] | inhibition [3] [%] | inhibition [6] [%] | further results |
| --- | --- | --- | --- | --- | --- |
| C#CCOc1ccc(-c2cc(/C=C/c3ccccc3)nc(N)n2)cc1C | 11.9 | 13.1 | 62.6 | – | inhibition [4]: inactive |
| Oc1ccc(/C=C/c2cc(O)cc(O)c2)cc1 | – | – | – | – | inhibition [5]: 54.6% |
| C#CCOc1ccc(-c2cc(/C=C/c3ccccc3)nc(-c3ccccc3)n2)cc1 | 7.18 | 20.9 | 70.2 | 3.6 | – |
| C#CCOc1ccccc1-c1cc(-c2ccc(Cl)cc2)nc(-c2ccccc2)n1 | – | – | – | – | IC50 [7]: 0.48 µM |
| C#CCOc1cccc(-c2cc(/C=C/c3ccccc3)nc(C)n2)c1 | 2.96 | 15.5 | 61.6 | 3.17 | – |
| C#CCOc1ccc(-c2cc(-c3ccc(OCC#C)cc3)nc(N)n2)cc1 | – | – | – | – | IC50 (Acetylcholinesterase [8]): 1.35 µM |
| O=C1c2ccccc2-c2cnc(-c3ccccc3)nc21 | – | – | – | – | IC50 [9]: 2.37 µM |
| C#CCNc1ccccc1-c1cc(-c2ccc(OCCN3CCCCC3)cc2)nc(N)n1 | – | – | – | – | IC50 (Acetylcholinesterase [8]): 40 µM; IC50 [10]: 0.37 µM |
| C#CCOc1ccc(-c2cc(/C(C)=C/c3ccccc3)nc(C)n2)cc1 | 15.7 | 10.9 | 60.5 | – | inhibition [4]: inactive |
| C#CCOc1ccc(-c2cc(/C=C/c3ccccc3)nc(C)n2)cc1 | 20.9 | 10 | 62.8 | 8.16 | – |
| C#CCOc1cccc(-c2cc(/C=C/c3ccccc3)ncn2)c1 | 76.4 | 13.9 | 69.2 | 6.43 | viability at 5 µM [11]: 90.7%; viability at 25 µM [12]: 86.5%; Activity [13]: 96.7%; Activity [14]: 2.6%; IC50 [15]: 4.93 µM; viability at 1 µM [16]: 91%; Activity [17]: 5.18%; Activity [18]: 3.4%; Activity [19]: 47.9%; IC50 (Acetylcholinesterase [20]): 9.02 µM; Activity [21]: 13.6%; inhibition [22]: Active; inhibition [23]: Active; inhibition [5]: 29.3%; inhibition [24]: 33%; Activity [25]: 34.91%; Activity [26]: 36.72% |
| C#CCOc1ccc(-c2cc(/C=C/c3ccccc3)nc(C)n2)cc1C | 0.27 | 0.96 | 67 | – | inhibition [4]: inactive |
| C#CCOc1ccc(-c2cc(/C(C)=C/c3ccccc3)nc(N)n2)cc1 | 1.79 | 8.66 | 71.3 | 3.04 | – |
| C#CCOc1ccc(-c2cc(/C(C)=C\c3ccccc3)ncn2)cc1 | 71.2 | – | 69 | 9.69 | viability at 5 µM [11]: 96.3%; viability at 25 µM [12]: 95.7%; Activity [13]: 97.1%; Activity [14]: 2.79%; IC50 [15]: 7.26 µM; viability at 1 µM [16]: 98.1%; Activity [17]: 7.45%; Activity [18]: 2.79%; Activity [19]: 42.9%; IC50 (Acetylcholinesterase [20]): 9.29 µM; Activity [21]: 18.6%; inhibition [22]: Active; inhibition [23]: Active; inhibition [5]: 21.6%; inhibition (INH) [27]: Not Active; inhibition [24]: 23.2%; Activity [25]: 30.37%; Activity [26]: 36.07% |
| C#CCOc1ccc(-c2cc(/C=C\c3ccccc3)ncn2)cc1 | 67.5 | – | 63.4 | – | IC50 [15]: 10.9 µM; IC50 (Acetylcholinesterase [20]): 7.49 µM; inhibition (INH) [27]: Not Active; inhibition [4]: inactive |
| N#Cc1cccnc1N1CCN(c2cc(Oc3cccc4cccnc34)ncn2)CC1 | – | – | – | – | IC50 (Acetylcholinesterase [8]): 0.036 µM |
| C#CCOc1cccc(-c2cc(/C(C)=C\c3ccccc3)nc(N)n2)c1 | 69.7 | 12 | 66.3 | 7.03 | IC50 [15]: 8.15 µM; IC50 (Acetylcholinesterase [20]): 8.48 µM |
| C#CCOc1ccccc1-c1cc(/C=C/c2ccccc2)nc(-c2ccccc2)n1 | 3.49 | 9.57 | 64.2 | 3.6 | – |
| C#CCOc1cccc(-c2cc(/C(C)=C/c3ccccc3)ncn2)c1 | 23.4 | 0.87 | 65.7 | – | inhibition [4]: inactive |
| C#CCOc1ccc(-c2cc(/C=C/c3ccccc3)nc(N)n2)cc1 | 9.28 | 8.61 | 68.5 | 2.12 | – |
| C#CCOc1cccc(-c2cc(/C=C/c3ccccc3)nc(-c3ccccc3)n2)c1 | 4.89 | 0.4 | 69.6 | 1.5 | – |
